This passage reports lethal dose, skin irritation index and breeding effect results from patent US20200016122A1, “METHOD FOR REDUCING ITCHING IN ATOPIC DERMATITIS” (priority 2018, published 2020).

SMILES strings stand for the structures. A value given as a limit tells only on which side of the number the result lay.

The subject of one data set is Kwl:ICR mice. The note with it: mouse, in vivo, 14 days. As to the method: (§1) The present inventors performed single oral dose toxicity tests (2,000 mg/kg) for N-nonanoyltryptamine over 14 days using Kwl:ICR mice. […] Patch tests were performed on human skin, the skin irritation index was 0.0, and the safety was confirmed (LIFE SCIENCE LABORATORIES, LTD., June 2011).

Another data set relates to human skin. Put plainly: patch test on human skin. Type of data set: in vivo. The note with it: patch tests on human skin. As to the method:
as §1

In a further data set the test system is goats. Type of data set: in vivo. The note with it: 1.0 mg/50 kg/day over 4 years.

As for `CCCCCCCCC(=O)NCCc1c[nH]c2ccccc12` [N-nonanoyltryptamine], in the data set with Kwl:ICR mice, the lethal dose is on record as ≥ 2,000 mg/kg. The same molecule came in with a skin irritation index with human skin of 0.0. Moreover, in the data set on goats, the breeding effect entry is reported as “strong breeding effect”.
